Measured values: the CheMixHub viscosity set

Assay: xn = mol fraction of the nth substance listed

CCCCCCCCCO + CN(C)C=O
Settings | viscosity [mPa·s]
308.15 K, 101.3 kPa, x2 = 0.2201 | 2.965

CC1CCCCC1=O (centres undefined) + CN(C)c1ccccc1
viscosity [mPa·s], 101 kPa
Settings | 303.15 K | 308.15 K
x2 = 0.0798 | 2.088 | 2.021
x2 = 0.1302 | 2.007 | 1.934
x2 = 0.2014 | 1.899 | 1.82
x2 = 0.2705 | 1.801 | 1.718
x2 = 0.3456 | 1.704 | 1.618
x2 = 0.4121 | 1.625 | 1.536
x2 = 0.4952 | 1.536 | 1.446
x2 = 0.5625 | 1.471 | 1.379
x2 = 0.6325 | 1.41 | 1.318
x2 = 0.7025 | 1.355 | 1.264
x2 = 0.7652 | 1.31 | 1.221
x2 = 0.8312 | 1.268 | 1.183
x2 = 0.9025 | 1.226 | 1.148

CC(O)CN(C)C (centres undefined) + NCc1ccccc1
viscosity [mPa·s], 101 kPa
Settings | x1 = 0.1003 | x1 = 0.1998 | x1 = 0.3 | x1 = 0.4001 | x1 = 0.5002 | x1 = 0.5999 | x1 = 0.7 | x1 = 0.8 | x1 = 0.8997
293.15 K | 1.87 | 1.91 | 1.92 | 1.91 | 1.88 | 1.84 | 1.78 | 1.7 | 1.6
303.15 K | 1.5 | 1.51 | 1.51 | 1.5 | 1.48 | 1.44 | 1.39 | 1.33 | 1.25
313.15 K | 1.23 | 1.23 | 1.22 | 1.21 | 1.18 | 1.14 | 1.1 | 1.05 | 1
323.15 K | 1.06 | 1.05 | 1.03 | 1.01 | 0.98 | 0.95 | 0.91 | 0.87 | 0.83

CCCCCCCCCO + CCCCCCCCO
viscosity [mPa·s], 101.8 kPa
Settings | x2 = 0.1095 | x2 = 0.3227 | x2 = 0.5251 | x2 = 0.7208 | x2 = 0.9082
298.15 K | 9.3 | 8.885 | 8.493 | 8.137 | 7.796
308.15 K | 6.575 | 6.317 | 6.057 | 5.821 | 5.595
318.15 K | 4.761 | 4.579 | 4.408 | 4.248 | 4.093

CN(C)CCCO + NCCCO
viscosity [mPa·s], 100 kPa
Settings | x2 = 0.1 | x2 = 0.1998 | x2 = 0.2997 | x2 = 0.4008 | x2 = 0.5 | x2 = 0.5024 | x2 = 0.6004 | x2 = 0.7021 | x2 = 0.7992 | x2 = 0.9007
293.15 K | 8.883 | 10.61 | 12.71 | 15.1 | 18.49 | 18.49 | 21.41 | 24.67 | 29.63 | 34.66
303.15 K | 6.062 | 7.04 | 8.322 | 9.824 | 11.73 | 11.73 | 13.48 | 15.36 | 18.09 | 20.64
313.15 K | 4.35 | 5.099 | 5.838 | 6.628 | 7.819 | 7.819 | 8.782 | 9.908 | 11.62 | 13.22
323.15 K | 3.23 | 3.72 | 4.206 | 4.668 | 5.389 | 5.389 | 6.034 | 6.779 | 7.862 | 8.889

O=[N+]([O-])c1ccccc1O + c1ccncc1
viscosity [mPa·s], 101 kPa
Settings | x1 = 0.06767 | x1 = 0.1295 | x1 = 0.178 | x1 = 0.2717 | x1 = 0.3836 | x1 = 0.4628 | x1 = 0.5508 | x1 = 0.6529 | x1 = 0.7913 | x1 = 0.8557
303.15 K | 0.943 | 1.081 | 1.211 | 1.5 | 1.881 | 2.15 | 2.45 | 2.755 | 3.145 | 3.331
313.15 K | 0.815 | 0.93 | 1.03 | 1.245 | 1.51 | 1.711 | 1.912 | 2.145 | 2.411 | 2.525

CC(=O)N(C)C + CCCO
viscosity [mPa·s]
Settings | 298.15 K | 303.15 K | 313.15 K
100 kPa, x1 = 0.0535 | 1.767 | – | 1.29
100 kPa, x1 = 0.1052 | 1.618 | – | 1.206
100 kPa, x1 = 0.2053 | 1.423 | – | 1.093
100 kPa, x1 = 0.3066 | 1.285 | – | 1.008
100 kPa, x1 = 0.407 | 1.197 | – | 0.948
100 kPa, x1 = 0.5061 | 1.143 | – | 0.904
100 kPa, x1 = 0.5984 | 1.097 | – | 0.8744
100 kPa, x1 = 0.701 | 1.045 | – | 0.8402
100 kPa, x1 = 0.8014 | 0.9977 | – | 0.8138
100 kPa, x1 = 0.9025 | 0.9648 | – | 0.7886
100 kPa, x1 = 0.9583 | 0.944 | – | 0.7749
101 kPa, x1 = 0.0966 | – | 1.47 | –
101 kPa, x1 = 0.1975 | – | 1.293 | –
101 kPa, x1 = 0.2992 | – | 1.193 | –
101 kPa, x1 = 0.3986 | – | 1.103 | –
101 kPa, x1 = 0.4894 | – | 1.048 | –
101 kPa, x1 = 0.6025 | – | 1 | –
101 kPa, x1 = 0.697 | – | 0.963 | –
101 kPa, x1 = 0.7955 | – | 0.93 | –
101 kPa, x1 = 0.9012 | – | 0.898 | –
